The term IC50 denotes the concentration at which inhibition is half-maximal. One may read the MIC as the lowest concentration that inhibits growth of the organism.

These results are taken from patent publication US20240417387A1, “SULFONYLPIPERAZINYL COMPOUNDS FOR TREATMENT OF BACTERIAL INFECTIONS” (Hoffmann-La Roche Inc., priority 2021, published 2024).

≈ marks a conversion by molar mass, not a printed value. Where two headings read alike, the source gives them in different places.

Series [1] addresses Escherichia coli UDP-2,3-diacylglucosamine hydrolase (LpxH) (Escherichia coli (strain K12), UniProt P43341). Nature of the series: Enzymatic IC50 assay of Escherichia coli LpxH (UMP/CMP-Glo luminescence). Type of series: biochemical. On the procedure: The inhibitory potency of compounds of Escherichia coli UDP-2,3-diacylglucosamine hydrolase (LpxH) was determined in an enzymatic assay. UDP-2,3-diacylglucosamine (UDP-DAG) was purified from the Caulobacter crescentus LpxI D225A mutant protein that contained a tightly bound UDP-DAG molecule. The enzyme was diluted using assay buffer containing 50 mM NaCl, 20 mM Tris-HCl pH7.5, 2.5 mM MnCl2, 0.01% Triton X-100.1 mg/mL BSA, and the final concentration is 2 nM. The compounds were diluted by Agilent liquid handler Bravo, the compound's serial dilution dose ranges from 100 μM to 1.7 nM. Then the enzyme and compounds mixture were incubated at room temperature for 10 mins. The enzymatic assay was started by adding UDP-DAG (FAC is 5 μM) and incubated for 20 mins at room temperature. The plate was then heated to 95° C. for 15 mins on a water batch to stop the reaction. The hydrolysis of UDP-DAG by LpxH yielded 2,3-diacylglucosamine 1-phosphate (lipid X) and UMP, which was converted to ATP and quantified by the luciferase reaction using the UMP/CMP-Glo™ Glycosyltransferase Assay kit from Promega. The compound's inhibitory effect of LpxH is determined by measuring the light change using a luminometer (Envision).

The subject of series [2] is Escherichia coli BW 25113. The series is described as follows: Minimal Inhibitory Concentration (MIC) broth dilution assay, E. coli BW 25113. The note with it: Escherichia coli, BW25113, 20 hours at 35° C., CAMHB, read-out: MIC E. coli K-12 BW 25113. In kind it is cell-based. On the procedure:
(§1) The antibacterial activity of molecules was evaluated against the commonly used quality control strain Escherichia coli BW 25113, Escherichia coli ATCC 25922 and the rifampin-resistant mutant strain Klebsiella pneumonia ATCC 43816. Escherichia co/i BW 25113 was obtained from the Coli Genetic Stock Center (CGSC) (strain 7636). Both Escherichia coli ATCC 25922 and Klebsiella pneumonia ATCC 43816 were originally derived from human clinical samples and are available from ATCC (American Type Culture Collection). The in vitro potency of compounds to inhibit Escherichia coli (BW 25113, ATCC 25922) and Klebsiella pneumonia (ATCC 43816) growth was assessed by the MIC (Minimal Inhibitory Concentration) broth dilution method. Specifically compound dilutions were prepared from 10 mM DMSO stock solutions as follows: i) serial 2-fold dilution in 20 μL DMSO were prepared in a master plate (Greiner, Cat No: 651201), ii) 180 μL sterile distilled water was added to each aliquot and iii) 10 μL diluted compounds were transferred into a new assay plate (Costar, 3599).
(§2) Vials of each test microorganisms were maintained frozen in the vapor phase of a liquid nitrogen freezer. Single-use frozen vials of the three strains Escherichia coli BW 25113, Escherichia coli ATCC 25922 (KWTKSTTK, 0335K) and Klebsiella pneumonia ATCC 43816, with predetermined CFU/mL, were taken out from the freezer, thawed at room temperature, and diluted in Cation-Adjusted Mueller Hinton Broth (CAMVIHB) to achieve a final inoculum of 5×10^5 CFU/mL. 90 μL bacteria containing broth was dispensed to the assay plate containing the pre-dispensed compound dilutions and mixed by pipetting 5 times.
(§3) Then the assay plates were incubated for 20 hours at 35° C. in ambient air. Following incubation, the MIC […], the lowest concentration of drug that inhibits visible growth of the microorganism was read with the help of a magnification mirror and recorded.
(In general: Broth dilution looks for growth in wells or tubes with falling amounts of substance.)

Series [3] relates to Escherichia coli ATCC 25922. The series is described as follows: Minimal Inhibitory Concentration (MIC) broth dilution assay, E. coli ATCC 25922. In kind it is cell-based. The note with it: Escherichia coli. Here is the method:
as §1, §2, §3

Series [4] deals with Klebsiella pneumonia ATCC 43816. The series is described as follows: Minimal Inhibitory Concentration (MIC) broth dilution assay, K. pneumonia ATCC 43816. Type of series: cell-based. To be noted: Klebsiella pneumoniae, ATCC43816, 20 hours at 35° C., CAMHB, read-out: MIC K. p ATCC 43816. Here is the method:
as §1, §2, §3

The nature of series [5]: Human microsome stability assay. In kind it is in vitro ADME. To be noted: human liver microsomes 0.5 mg/mL, 37° C., pH 7.4, NADPH regenerating system. Here is the method: The human microsomal stability assay is used for early assessment of metabolic stability of a test compound in human liver microsomes.
Human liver microsomes (Cat.NO.: 452117, Corning, USA) were preincubated with test compound for 10 minutes at 37° C. in 100 mM potassium phosphate buffer, pH 7.4. The reactions were initiated by adding NADPH regenerating system. The final incubation mixtures contained 1 µM test compound, 0.5 mg/mL liver microsomal protein, 1 mM MgCl2, 1 mM NADP, 1 unit/mL isocitric dehydrogenase and 6 mM isocitric acid in 100 mM potassium phosphate buffer, pH 7.4. After incubation times of 0, 3, 6, 9, 15 and 30 minutes at 37° C., 300 μL of cold acetonitrile (including internal standard) was added to 100 μL incubation mixture to terminate the reaction. Following precipitation and centrifugation, the amount of compound remaining in the samples were determined by LC-MS/MS. Controls of no NADPH regenerating system at zero and 30 minutes were also prepared and analyzed. […] (Human microsome clearance: <7 mL/min/kg: low; 7-16.2 mL/min/kg: medium; >16.2 mL/min/kg: high)
On the technique in general: Liver microsomes are a subcellular fraction often used to study metabolism.

Setting [6] is: Enzymatic IC50 against Escherichia coli LpxH, read-out: IC50 (converted).
The mark [7] stands for this setting: ATCC25922, 20 h, read-out: MIC E. coli ATCC 25922.

Escherichia coli UDP-2,3-diacylglucosamine hydrolase (LpxH), sequence (P43341 whole entry): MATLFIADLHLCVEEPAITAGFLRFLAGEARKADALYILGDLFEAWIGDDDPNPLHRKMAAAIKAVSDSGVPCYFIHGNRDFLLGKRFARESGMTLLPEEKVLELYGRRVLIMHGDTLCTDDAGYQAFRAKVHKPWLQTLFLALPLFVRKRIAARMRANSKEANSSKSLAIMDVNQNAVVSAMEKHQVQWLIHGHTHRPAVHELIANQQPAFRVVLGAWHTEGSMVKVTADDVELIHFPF

With `N[C@@H]1CC(=O)N(c2ccc(S(=O)(=O)N3CCN(c4cc(C(F)(F)[C@H]5CC[C@H](C(=O)N[C@H]6CNC[C@H]6N)CC5)cc(Cl)n4)CC3)cc2)C1` (stereo in doubt) [Example 011, Trans-4-[[2-chloro-6-[4-[4-[(4R)-4-amino-2-oxo-pyrrolidin-1-yl]phenyl]sulfonylpiperazin-1-yl]-4-pyridyl]-difluoro-methyl]-N-[cis-4-aminopyrrolidin-3-yl]cyclohexanecarboxamide], the IC50 in series [1] (setting [6]) is 17.3 nM. Besides, the minimum inhibitory concentration (MIC) in series [2], in series [3] (setting [7]) and in series [4] was 1.1 µg/mL (≈ 1.58 µM) in each case. The “Clearance of Human microsome” value in series [5] is reported as 11.93 mL/min/kg.
Consider `N[C@@H]1CC(=O)N(c2ccc(S(=O)(=O)N3CCN(c4cc(C(F)(F)[C@H]5CC[C@H](C(=O)NCC6CNC6)CC5)cc(Cl)n4)CC3)cc2)C1` [Example 002, Trans-4-[[2-[4-[4-[(4R)-4-amino-2-oxo-pyrrolidin-1-yl]phenyl]sulfonylpiperazin-1-yl]-6-chloro-4-pyridyl]-difluoro-methyl]-N-(azetidin-3-ylmethyl)cyclohexanecarboxamide], for which the IC50 in series [1] (setting [6]) was < 2.94 nM. Besides, the minimal inhibitory concentration (MIC) in series [2], in series [3] (setting [7]) and in series [4] was 1.8 µg/mL (≈ 2.65 µM) each time. Besides, in series [5], the “Clearance of Human microsome” value is listed as 6.15 mL/min/kg.
As for `NC1CC(=O)N(c2ccc(S(=O)(=O)N3CCN(c4cc(C(F)(F)[C@H]5CC[C@H](C(=O)NCCCO)CC5)cc(Cl)n4)CC3)cc2)C1` (stereo partly drawn) [Example 003, Trans-4-[[2-[4-[4-(4-amino-2-oxo-pyrrolidin-1-yl)phenyl]sulfonylpiperazin-1-yl]-6-chloro-4-pyridyl]-difluoro-methyl]-N-(3-hydroxypropyl)cyclohexanecarboxamide], the IC50 in series [1] is < 2.99 nM. Moreover, the MIC in series [2] came out at 1 µg/mL (≈ 1.49 µM); in series [3] (setting [7]), 4.2 µg/mL (≈ 6.28 µM); in series [4], 2.1 µg/mL (≈ 3.14 µM). The “Clearance of Human microsome” value in series [5] was 7.41 mL/min/kg.
As to `CC1(N)CCN(C(=O)[C@H]2CC[C@H](C(F)(F)c3cc(Cl)nc(N4CCN(S(=O)(=O)c5ccc(N6C[C@H](N)CC6=O)cc5)CC4)c3)CC2)CC1` [Example 004, Trans-(4R)-4-amino-1-[4-[4-[4-[[4-(4-amino-4-methyl-piperidine-1-carbonyl)cyclohexyl]-difluoro-methyl]-6-chloro-2-pyridyl]piperazin-1-yl]sulfonylphenyl]pyrrolidin-2-one], in series [1] (setting [6]), the IC50 is 8.47 nM. The MIC in series [2] amounted to 0.83 µg/mL (≈ 1.17 µM); in series [3] (setting [7]), 1.1 µg/mL (≈ 1.55 µM); in series [4] it was 1.1 µg/mL (≈ 1.55 µM). Further, in series [5], the “Clearance of Human microsome” value is recorded as 6.15 mL/min/kg.
As for `CN1CC2(C1)CN(C(=O)[C@H]1CC[C@H](C(F)(F)c3cc(Cl)nc(N4CCN(S(=O)(=O)c5ccc(N6C[C@H](N)CC6=O)cc5)CC4)c3)CC1)C2` [Example 005, Trans-(4R)-4-amino-1-[4-[4-[6-chloro-4-[difluoro-[4-(6-methyl-2,6-diazaspiro[3.3]heptane-2-carbonyl)cyclohexyl]methyl]-2-pyridyl]piperazin-1-yl]sulfonylphenyl]pyrrolidin-2-one], the concentration for half-maximal inhibition (IC50) in series [1] (setting [6]) is 4.25 nM. Further, the minimum inhibitory concentration (MIC) in series [2] came out at 3.3 µg/mL (≈ 4.67 µM); in series [3] (setting [7]), 2.2 µg/mL (≈ 3.12 µM); in series [4] it was 2.2 µg/mL (≈ 3.12 µM). Besides, the “Clearance of Human microsome” value in series [5] came out at 6.15 mL/min/kg.
For `N[C@@H]1CC(=O)N(c2ccc(S(=O)(=O)N3CCN(c4cc(C(F)(F)[C@H]5CC[C@H](C(=O)NC6CNCC6O)CC5)cc(Cl)n4)CC3)cc2)C1` (some centres unmarked) [Example 006], the IC50 in series [1] (setting [6]) was 4.31 nM. Moreover, the MIC in series [2], in series [3] (setting [7]) and in series [4] was 1.1 µg/mL (≈ 1.58 µM) each time. For the same compound, in series [5], the “Clearance of Human microsome” value came to 6.15 mL/min/kg.
Regarding `NC1CC(NC(=O)[C@H]2CC[C@H](C(F)(F)c3cc(Cl)nc(N4CCN(S(=O)(=O)c5ccc(N6C[C@H](N)CC6=O)cc5)CC4)c3)CC2)C1` (stereo partly drawn) [Example 007, Trans-N-(3-aminocyclobutyl)-4-[[2-chloro-6-[4-[4-[(4R)-4-amino-2-oxo-pyrrolidin-1-yl]phenyl]sulfonylpiperazin-1-yl]-4-pyridyl]-difluoro-methyl]cyclohexanecarboxamide], the IC50 in series [1] (setting [6]) is 7.35 nM. Further, the MIC in series [2] was found to be 1.1 µg/mL (≈ 1.62 µM); in series [3] (setting [7]), 1.1 µg/mL (≈ 1.62 µM); in series [4] it was 0.53 µg/mL (≈ 0.779 µM). Besides, the “Clearance of Human microsome” value in series [5] was 6.90 mL/min/kg.
As for `NCCCNC(=O)C1CCC(C(F)(F)c2cc(Cl)nc(N3CCN(S(=O)(=O)c4ccc(N5C[C@H](N)CC5=O)cc4)CC3)c2)C1` (stereo partly drawn) [Example 035, N-(3-aminopropyl)-3-[[2-chloro-6-[4-[4-[(4R)-4-amino-2-oxo-pyrrolidin-1-yl]phenyl]sulfonylpiperazin-1-yl]-4-pyridyl]-difluoro-methyl]cyclopentanecarboxamide], the IC50 in series [1] (setting [6]) is 45.9 nM. In addition, the “Clearance of Human microsome” value in series [5] is 8.90 mL/min/kg.
As to `NCCCNC(=O)C12CC(C(F)(F)c3cc(Cl)nc(N4CCN(S(=O)(=O)c5ccc(N6C[C@H](N)CC6=O)cc5)CC4)c3)(C1)C2` [Example 040], the IC50 in series [1] (setting [6]) is 6.13 nM. Also, in series [5], the “Clearance of Human microsome” value is listed as 6.15 mL/min/kg.
For `NCCCNC(=O)[C@H]1CC[C@H](C(F)(F)c2cc(Cl)nc(N3CCC(S(=O)(=O)c4ccc(N5C[C@H](N)CC5=O)cc4)CC3)c2)CC1` [Example 062, Trans-N-(3-aminopropyl)-4-[[2-chloro-6-[4-[4-[(4R)-4-amino-2-oxo-pyrrolidin-1-yl]phenyl]sulfonyl-1-piperidyl]-4-pyridyl]-difluoro-methyl]cyclohexanecarboxamide], the IC50 in series [1] (setting [6]) was 33 nM. Moreover, the “Clearance of Human microsome” value in series [5] is on record as 7.74 mL/min/kg.
With `C[N+]1(CCN)CCN(C(=O)[C@H]2CC[C@H](C(F)(F)c3cc(Cl)nc(N4CCN(S(=O)(=O)c5ccc(N6C[C@H](N)CC6=O)cc5)CC4)c3)CC2)CC1` [Example 071, Trans-(4R)-4-amino-1-[4-[4-[4-[[4-[4-(2-aminoethyl)-4-methyl-piperazin-4-ium-1-carbonyl]cyclohexyl]-difluoro-methyl]-6-chloro-2-pyridyl]piperazin-1-yl]sulfonylphenyl]pyrrolidin-2-one], the IC50 in series [1] (setting [6]) is 14.9 nM. Also, the “Clearance of Human microsome” value in series [5] was 10.73 mL/min/kg.
As to `CNC(=O)c1ccc(C(F)(F)c2cc(Cl)nc(N3CCN(S(=O)(=O)c4ccc(N5CC(NCCCN)CC5=O)cc4)CC3)c2)cc1` (centres unmarked) [Example 078, 4-[[2-[4-[4-[4-(3-Aminopropylamino)-2-oxo-pyrrolidin-1-yl]phenyl]sulfonylpiperazin-1-yl]-6-chloro-4-pyridyl]-difluoro-methyl]-N-methyl-benzamide], in series [1] (setting [6]), the IC50 was 5.92 nM. Moreover, the MIC turned out to be 1.4 µg/mL (≈ 2.07 µM) in series [2]; 2.8 µg/mL (≈ 4.14 µM) in series [3] (ATCC25922, read-out: MIC E. coli ATCC 25922, broth dilution, 20 hours at 35° C., CAMHB, read-out: MIC E. coli K-12 ATCC 25922); 2.1 µg/mL (≈ 3.11 µM) in series [4].
